Assay results: patent publication US8471027B2, “Adamantyl compounds” (Hoffmann-La Roche Inc., priority 2011, dated 2013)

How the values were obtained:
[1] = tested on: phospho(Ser63)-c-jun in HK-2 cells; test: Cell-based assay for JNK inhibitors: in-cell ELISA of TNFα-stimulated phospho(Ser63)-c-jun in HK-2 cells; settings: Homo sapiens, 10 ng/mL TNFα, 60 min preincubation with compound
Description: Cell-Based Assay for JNK Inhibitors
The cell-based assay employed the in-cell ELISA method to determine the ability of compounds to prevent the generation of phospho(Ser63)-c-jun in HK-2 cells (human proximal tubule cells) in response to stimulation with tumor necrosis factor α (TNFα). In brief, for quantification of phospho(Ser63)-c-jun, the cells (in 96-well format) were fixed and permeablized then incubated sequentially with a rabbit anti-phospho-c-jun First Antibody specific for the presence of the phospho-Ser63 epitope and a donkey anti-rabbit IgG Second Antibody linked to horseradish peroxidase (HRP) for colorimetric quantitation of binding. For determination of non-specific binding of the First Antibody, Blank wells were preincubated with a mouse anti-phospho(Ser63)-c-jun Blocking Antibody that prevented specific binding of the First Antibody to the phospho-Ser63 epitope, but which was not recognized by the donkey anti-rabbit IgG Second Antibody. […] Blank wells received no TNFα stimulation or compound. Additional Control wells received TNFα stimulation, but no compound. The signal obtained in this case was considered the value for 0% inhibition (Control value).
Stock cultures of HK-2 cells (ATCC, Manassas, Va.) were grown under a 5% CO2/[…] atmosphere at 37 degrees C. in Keratinocyte-SFM medium (KSFM, Invitrogen, Grand Island, N.Y.) containing 5 μg/L epidermal growth factor and 5 mg/L bovine pituitary extract (both supplied with the medium), additionally supplemented with 10% (v/v) fetal calf serum (FCS; Invitrogen, Grand Island, N.Y.) and 1% (v/v) antibiotic-antimycotic (ABAM: Sigma, St. Louis, Mo.). For assays, cells were seeded in collagen coated 96-well polystyrene plates (BD Biosciences, Franklin Lakes, N.J.) at a density of 40,000 cells/well and cultured for 24 h in the same medium (100 μL/well) followed by a further 16-24 h in 100 μL of similar medium, but without FCS. […] Cells were incubated for a further 30 minutes and then the medium was aspirated and the wells washed with 100 μL/well PBS followed by the addition of 100 μL 3.7% (v/v) Formaldehyde (Fisher Scientific, Fair Lawn, N.J.) in PBS. Plates were then allowed to stand at room temperature for 20 minutes before being washed with 200 μL/well of PBS. (Further steps were performed immediately or the plates were stored at 4 degrees C. and the assay completed the next day.) To each well was added 100 μL 1% (v/v) TritonX-100 (Sigma, St. Louis, Mo.) in PBS followed by 20 minutes standing at room temperature, washing with 200 μL/well PBS, the addition of 100 μL/well of Quenching buffer (1% (v/v) hydrogen peroxide (Sigma, St. Louis, Mo.) and 0.1% (w/v) sodium azide (Fisher Scientific, Fair Lawn, N.J.)) in PBS and a further 20 minutes at room temperature. Plates were then washed twice with 200 μL/well of 0.1% (v/v) Tween-20 (Teknova, Hollister, Calif.) in PBS before addition of 200 μL/well of 2% BSA/0.10% Tween-20 in PBS and a further 1 hour at room temperature. At this time, buffer was removed from Blank wells and replaced with 90 μL/well of mouse anti-phospho-c-jun-Ser63 (BD Bioscience, 558036) diluted 1:4000 in PBS containing 1% BSA/0.1% Tween-20 (Antibody Dilution Buffer). All other wells are replaced with 90 μL/well of rabbit anti-phospho-c-jun-Ser63 (Cell Signaling, 9261) diluted 1:250 in Antibody Dilution Buffer. After a further one hour, rabbit anti-phospho-c-jun-Ser63 is added directly to the solution in the Blank wells resulting in 1:250 dilution of this antibody. Plates were then placed on a slowly rotating platform at 4 degrees C. overnight. Wells were then washed thrice with 200 μL/well PBS/0.1% Tween-20. After addition of the third wash, the plates were placed on a slowly rotating platform for 15 minutes at room temperature. […]

phospho-(Ser63)-c-jun = test: Mouse In Vivo TNFα-Induced Kidney and Liver Phospho-c-Jun Assay; design: species or system C57/BL6 mice; settings: Example B, procedures identical to Example A
Description: Male C57/BL6 mice were obtained from Jackson Labs and acclimatized for at least one week prior to use at age 10-12 weeks. Mice (n=8 per group) were administered Compound I-1 (Group 3; 50 mg/kg from a 12.5 mg/mL preparation in 20% (v/v)DMSO/80% (v/v) PEG400) or vehicle alone (Groups 1 and 2) via oral gavage. One hour later, mice received an intravenous challenge of 5 μg/kg recombinant mouse TNFα (Sigma) in saline (Groups 2 and 3) or saline alone (Group 1). After a further 1 h, the animals were killed by carbon dioxide inhalation. Kidneys and livers were removed, rapidly frozen in liquid nitrogen and stored at −80 degrees until analysis.
For analysis of livers, portions of frozen tissue (100-200 mg) were homogenized in lysis buffer (Cell Signaling Technology) supplemented with 1% (v/v) of each of Phosphatase Inhibitor Cocktail-1 (Sigma), Phosphatase Inhibitor Cocktail-2 (Sigma), Protease Inhibitor Cocktail (Sigma) and 1 mM AEBSF (Sigma). The phospho-(Ser63)-c-jun content was quantified using an ELISA kit (Cell Signaling Technology).
Experimental procedures were identical to Example A, but using 7-chloro-3-(4-methanesulfonyl-benzyl)-4-oxo-1-phenyl-1,4-dihydro-quinoline-2-carboxylic acid methyl ester.

JNK1 = JNK1 (Homo sapiens, UniProt P45983); test: In vitro JNK1 Assay (TR-FRET, phosphorylation of GST-c-Jun); format: biochemical; settings: 0.2 nM JNK1, 26.7 nM GST-c-Jun, 2 μM ATP
Chain of JNK1 (P45983 whole entry, species assumed, the tested form may be a part): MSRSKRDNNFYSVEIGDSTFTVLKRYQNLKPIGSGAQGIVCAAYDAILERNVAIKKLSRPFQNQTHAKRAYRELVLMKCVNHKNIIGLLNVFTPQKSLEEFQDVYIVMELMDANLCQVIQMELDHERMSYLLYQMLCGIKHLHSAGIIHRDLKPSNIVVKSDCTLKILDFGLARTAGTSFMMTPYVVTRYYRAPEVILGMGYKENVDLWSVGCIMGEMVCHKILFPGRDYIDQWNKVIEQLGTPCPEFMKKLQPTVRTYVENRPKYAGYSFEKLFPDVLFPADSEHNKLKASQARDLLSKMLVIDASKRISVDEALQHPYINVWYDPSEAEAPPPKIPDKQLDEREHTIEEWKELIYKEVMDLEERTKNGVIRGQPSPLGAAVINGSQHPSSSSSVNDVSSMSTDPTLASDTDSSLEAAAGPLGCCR
Description: Phosphorylation of GST-c-Jun protein (amino acid residues 1-79) was measured as JNK1 activity. […] The reaction buffer contained 50 mM HEPES, pH 7.0, 10 mM MgCl2, 1 mM DTT, 0.1 mM Na3 VO4 and 0.2 mg/mL BSA. After 30 min. incubation at room temperature, the reaction was terminated by adding buffer containing 8 mM EDTA and a polyclonal anti-phospho-c-Jun antibody (Cell Signaling #9261L), followed by an additional incubation of 30 min. at room temperature. […] Time-resolved Fluorescence Resonance Energy Transfer (TR-FRET) signals were measured 1 hr. later on the EnVision reader (Perkin Elmer). Compound potency was assessed at 10 serially diluted concentrations. Percentage of inhibition at each concentration was determined to generate an IC50 value for each compound.

| Structure (SMILES) | EC50 [1] [µM] | IC50 (JNK1) [µM] | effect on the levels of phospho-(Ser63)-c-jun in the kidneys (phospho-(Ser63)-c-jun) | effect on the levels of phospho-(Ser63)-c-jun in the livers (phospho-(Ser63)-c-jun) |
| --- | --- | --- | --- | --- |
| COC(=O)c1c(Cc2ccc(S(C)(=O)=O)cc2)c(=O)c2ccc(Cl)cc2n1-c1ccccc1 [7-chloro-3-(4-methanesulfonyl-benzyl)-4-oxo-1-phenyl-1,4-dihydro-quinoline-2-carboxylic acid methyl ester, reference compound] | 15 | 0.032 | No significant effect | No significant effect |
| COC(=O)c1c(Cc2ccc(C(=O)N[C@@H]3[C@@H]4C[C@@H]5C[C@H]3C[C@@](NC(C)=O)(C5)C4)cc2)c(=O)c2cccnc2n1-c1ccccc1 [Compound I-17, rel-3-[4-((1S,2S,3R,5S,7S)-5-Acetylamino-adamantan-2-ylcarbamoyl)-benzyl]-4-oxo-1-phenyl-1,4-dihydro-[1,8]naphthyridine-2-carboxylic acid methyl ester] | 3.1 | 0.026 |  |  |
| COC(=O)c1c(Cc2ccc(C(=O)N[C@@H]3[C@@H]4C[C@@H]5C[C@H]3C[C@@](NS(=O)(=O)C3CC3)(C5)C4)cc2)c(=O)c2cccnc2n1-c1ccccc1 [Compound I-18, rel-3-[4-((1S,2S,3R,5S,7S)-5-Cyclopropanesulfonylamino-adamantan-2-ylcarbamoyl)-benzyl]-4-oxo-1-phenyl-1,4-dihydro-[1,8]naphthyridine-2-carboxylic acid methyl ester] | 1.8 | 0.005 |  |  |
| COC(=O)c1c(Cc2ccc(C(=O)N[C@@H]3[C@@H]4C[C@@H]5C[C@H]3C[C@@](NS(C)(=O)=O)(C5)C4)cc2)c(=O)c2cccnc2n1-c1ccccc1 [Compound I-19, rel-3-[4-((1S,2S,3R,5S,7S)-5-Methanesulfonylamino-adamantan-2-ylcarbamoyl)-benzyl]-4-oxo-1-phenyl-1,4-dihydro-[1,8]naphthyridine-2-carboxylic acid methyl ester] | 2.1 | 0.011 |  |  |
| COC(=O)c1c(Cc2ccc(C(=O)N[C@@H]3[C@@H]4C[C@@H]5C[C@H]3C[C@@](NC(=O)C(C)(C)C)(C5)C4)cc2)c(=O)c2cccnc2n1-c1ccccc1 [Compound I-20, rel-3-{4-[(1S,2S,3R,5S,7S)-5-(2,2-Dimethyl-propionylamino)-adamantan-2-ylcarbamoyl]-benzyl}-4-oxo-1-phenyl-1,4-dihydro-[1,8]naphthyridine-2-carboxylic acid methyl ester] | 5.3 | 0.039 |  |  |
| COC(=O)c1c(Cc2ccc(C(=O)N[C@@H]3[C@@H]4C[C@@H]5C[C@H]3C[C@@](NC(=O)C(C)(C)OC(C)=O)(C5)C4)cc2)c(=O)c2cccnc2n1-c1ccccc1 [Compound I-21, rel-3-{4-[(1S,2S,3R,5S,7S)-5-(2-Acetoxy-2-methyl-propionylamino)-adamantan-2-ylcarbamoyl]-benzyl}-4-oxo-1-phenyl-1,4-dihydro-[1,8]naphthyridine-2-carboxylic acid methyl ester] | 4.8 | 0.025 |  |  |
| COC(=O)c1c(Cc2ccc(C(=O)N[C@@H]3[C@@H]4C[C@@H]5C[C@H]3C[C@@](NC(=O)C(C)(C)O)(C5)C4)cc2)c(=O)c2cccnc2n1-c1ccccc1 [Compound I-22, rel-3-{4-[(1S,2S,3R,5S,7S)-5-(2-Hydroxy-2-methyl-propionylamino)-adamantan-2-ylcarbamoyl]-benzyl}-4-oxo-1-phenyl-1,4-dihydro-[1,8]naphthyridine-2-carboxylic acid methyl ester] | 4.1 | 0.022 |  |  |
| COC(=O)c1c(Cc2ccc(C(=O)N[C@@H]3[C@@H]4C[C@@H]5C[C@H]3C[C@@](O)(C5)C4)cc2OC)c(=O)c2cccnc2n1-c1ccccc1 [Compound I-23, rel-3-[4-((1S,2S,3R,5S,7S)-5-Hydroxy-adamantan-2-ylcarbamoyl)-2-methoxy-benzyl]-4-oxo-1-phenyl-1,4-dihydro-[1,8]naphthyridine-2-carboxylic acid methyl ester] | 7.8 | 0.027 |  |  |

Now from value to compound, other results behind:

| EC50 [1] [µM] | IC50 (JNK1) [µM] | Structure (SMILES) | effect on the levels of phospho-(Ser63)-c-jun in the kidneys (phospho-(Ser63)-c-jun) | effect on the levels of phospho-(Ser63)-c-jun in the livers (phospho-(Ser63)-c-jun) |
| --- | --- | --- | --- | --- |
| 8.6 | 0.034 | COC(=O)c1c(Cc2ccc(C(=O)N[C@@H]3[C@@H]4C[C@@H]5C[C@H]3C[C@@](O)(C5)C4)cc2F)c(=O)c2cccnc2n1-c1ccccc1 [Compound I-24, rel-3-[2-Fluoro-4-((1S,2S,3R,5S,7S)-5-hydroxy-adamantan-2-ylcarbamoyl)-benzyl]-4-oxo-1-phenyl-1,4-dihydro-[1,8]naphthyridine-2-carboxylic acid methyl ester] |  |  |
| 3.6 | 0.077 | COC(=O)c1c(Cc2ccc(C(=O)N[C@@H]3[C@@H]4C[C@@H]5C[C@H]3C[C@@](O)(C5)C4)cc2)c(=O)c2ccc(C(F)(F)F)nc2n1-c1ccccc1 [Compound I-25, rel-3-[4-((1S,2S,3R,5S,7S)-5-Hydroxy-adamantan-2-ylcarbamoyl)-benzyl]-4-oxo-1-phenyl-7-trifluoromethyl-1,4-dihydro-[1,8]naphthyridine-2-carboxylic acid methyl ester] |  |  |
| 3.9 | 0.04 | COC(=O)c1c(Cn2ccc(C(=O)N[C@@H]3[C@@H]4C[C@@H]5C[C@H]3C[C@@](O)(C5)C4)cc2=O)c(=O)c2ccc(Cl)cc2n1-c1ccccc1 [Compound I-26, rel-7-Chloro-3-[4-((1S,2S,3R,5S,7S)-5-hydroxy-adamantan-2-ylcarbamoyl)-2-oxo-2H-pyridin-1-ylmethyl]-4-oxo-1-phenyl-1,4-dihydro-quinoline-2-carboxylic acid methyl ester] |  |  |
| 8.6 | 0.027 | O=C(N[C@@H]1[C@@H]2C[C@@H]3C[C@H]1C[C@@](O)(C3)C2)c1ccc(Cc2c(-c3ncco3)n(-c3ccccc3)c3cc(Cl)ccc3c2=O)cc1 [Compound I-27, Rel-4-(7-Chloro-2-oxazol-2-yl-4-oxo-1-phenyl-1,4-dihydro-quinolin-3-ylmethyl)-N-((1S,2S,3R,5S,7S)-5-hydroxy-adamantan-2-yl)-benzamide] |  |  |
